The record followed here is ChEMBL document CHEMBL5154726, “Identification of triazolopyridine derivatives as a new class of AhR agonists and evaluation of anti-psoriasis effect in a mouse model” (Eur J Med Chem, 2022).

Data set [1] deals with T1, Aryl hydrocarbon receptor (Homo sapiens, UniProt P35869).
T1 sequence (P35869 whole entry): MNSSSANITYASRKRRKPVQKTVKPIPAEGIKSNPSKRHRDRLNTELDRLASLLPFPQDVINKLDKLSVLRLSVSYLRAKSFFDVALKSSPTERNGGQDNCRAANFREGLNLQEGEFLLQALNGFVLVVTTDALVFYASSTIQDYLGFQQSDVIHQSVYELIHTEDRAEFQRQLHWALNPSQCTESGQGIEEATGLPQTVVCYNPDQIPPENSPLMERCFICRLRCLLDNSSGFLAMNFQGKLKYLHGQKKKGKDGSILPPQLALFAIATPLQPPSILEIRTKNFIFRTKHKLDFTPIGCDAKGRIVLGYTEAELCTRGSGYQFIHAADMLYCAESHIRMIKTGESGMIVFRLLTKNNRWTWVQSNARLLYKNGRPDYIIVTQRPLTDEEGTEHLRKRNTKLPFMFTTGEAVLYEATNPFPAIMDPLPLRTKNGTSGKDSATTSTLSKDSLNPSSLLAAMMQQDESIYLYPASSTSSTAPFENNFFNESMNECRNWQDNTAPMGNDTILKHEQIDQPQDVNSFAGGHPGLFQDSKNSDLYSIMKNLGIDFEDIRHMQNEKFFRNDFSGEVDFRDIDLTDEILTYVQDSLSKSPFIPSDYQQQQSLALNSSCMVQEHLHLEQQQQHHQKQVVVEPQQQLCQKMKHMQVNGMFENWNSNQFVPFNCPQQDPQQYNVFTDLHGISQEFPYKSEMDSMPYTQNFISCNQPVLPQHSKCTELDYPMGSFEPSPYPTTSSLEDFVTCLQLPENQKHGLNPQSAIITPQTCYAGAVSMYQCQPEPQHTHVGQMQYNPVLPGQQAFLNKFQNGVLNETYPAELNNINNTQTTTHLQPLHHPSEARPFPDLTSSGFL
Kind of data set: Agonist activity at AhR in human recombinant HepG2-Lucia AhR cell incubated for 24 hrs by luciferase reporter gene assay. The data set is classed as cell-based. On the technique in general: A reporter such as luciferase makes a cellular process visible.

Data set [2] can be described thus: Apparent permeability in MDCK cells at 50 uM incubated for 90 mins by LC/MS analysis. The settings on record: dog. The data set is classed as ADME, cell-based, Canis lupus familiaris.
Data set [3] can be described thus: Efflux ratio of apparent permeability in MDCK cells. The data set is classed as ADME, cell-based, Canis lupus familiaris. The settings on record: dog.
A short description of data set [4]: Solubility of the compound incubated for 48 hrs under shaking condition by LC/MS analysis. The class given is physicochemical.
A short description of data set [5]: n-Octanol/water partition coefficient, logD of the compound at 1 mg incubated for 48 hrs under shaking condition by LC/MS analysis. The class given is physicochemical.
Data set [6] can be described thus: Induction of apoptosis in human CD4+ve Th cells. The data set is classed as toxicity, cell-based.

pEC50, pIC50: −log10 of the molar value. ≈ marks a conversion by molar mass, not a printed value.

Regarding `[O-][n+]1c(-c2ccc(Br)cc2)nc2cc(F)ccn21`, the pEC50 (usually the EC50 on a negative log10 scale, so that one unit is a factor of ten) in data set [1] was 7.08. With `Brc1ccc(-c2nc3c(Br)cccn3n2)cc1`, the pEC50 in data set [1] was 6.76. For `[O-][n+]1c(-c2ccc(Br)cc2)nc2ccccn21`, in data set [1], the pEC50 was 5.60. Still for that read-out and setting: for `[O-][n+]1c(-c2ccc(Br)cc2)nc2ccc(C(F)(F)F)cn21` the value was 6.12; for `[O-][n+]1c(-c2ccc(Cl)cc2)nc2ccccn21`, 5.48; for `Brc1ccc(-c2nc3cccc(Br)n3n2)cc1`, 6.20. On the same count and under the same terms, to `[O-][n+]1c(-c2ccc3ccccc3c2)nc2ccccn21` belongs below 5.00. As to `[O-][n+]1c(-c2ccc(Br)cc2)nc2ccc(Br)cn21`, the pEC50 in data set [1] is 9.57. In addition, the Papp (commonly the rate of passage across a membrane or cell layer, normalised by area and donor concentration) at 1.5 h, 50 µM in data set [2] was 1.43 ×10⁻⁶ cm/s. Further, the efflux ratio (in general, the permeability from basolateral to apical divided by that in the opposite direction, in the common usage) in data set [3] was found to be 6.2. Further, the solubility (thermodynamic) (commonly solubility found after equilibrating the solid with the medium) at 48 h in data set [4] stood at 2.24 µg/mL (≈ 6.07 µM). The logD – broadly, the decadic logarithm of the distribution of all forms, ionised or not, between an organic phase and buffer at a given pH – at 48 h in data set [5] turned out to be 2.59. As to `COC(=O)c1ccc(-c2nc3ccccn3[n+]2[O-])cc1`, the pEC50 in data set [1] was below 5.00.

On to `Brc1ccc2nc(-c3ccccc3Br)nn2c1`, for which the pEC50 in data set [1] was 5.61. The same measure, in the same setting: to `[O-][n+]1c(-c2ccc(Br)cc2)nc2ccc(Cl)cn21` belongs 9.47. With `[O-][n+]1c(-c2cccnc2)nc2ccccn21`, the pEC50 in data set [1] was below 5.00. Still for that read-out and setting: to `FC(F)(F)c1ccc(-c2nc3ccc(Br)cn3n2)cc1` belongs 9.36; to `Fc1ccc(-c2nc3ccc(Br)cn3n2)cc1`, 5.93; to `Brc1ccc(-c2nc3cc4ccccc4cn3n2)cc1`, below 5.00.

Consider `Cc1ccc(-c2nc3ccc(Br)cn3n2)cc1`, for which, in data set [1], the pEC50 was 5.72.

In the case of `N#Cc1ccc2nc(-c3ccc(Br)cc3)[n+]([O-])n2c1`, in data set [1], the pEC50 is 7.11. In the case of `Cc1ccc2nc(-c3ccc(Br)cc3)nn2c1`, the pEC50 in data set [1] was below 5.00. With `[O-][n+]1c(-c2ccc(-c3ccc(Cl)cc3)o2)nc2ccccn21`, in data set [1], the pEC50 is below 5.00. Same read-out and setting: to `Cc1ccc2nc(-c3ccc(Br)cc3)[n+]([O-])n2c1` belongs 6.07; to `[O-][n+]1c(-c2ccc(Br)cc2)nc2c(Br)cccn21`, 6.43. For `CC(C)c1c(O)cc(/C=C/c2ccccc2)cc1O` [TAPINAROF], the pIC50 (in general, the IC50 on a negative log10 scale, so that one unit is a factor of ten) in data set [6] was 5.28. As to `N#Cc1ccc2nc(-c3ccc(Br)cc3)nn2c1`, the pEC50 in data set [1] was 7.64. Still for that read-out and setting: for `Brc1ccc(-c2nc3cc(Br)ccn3n2)cc1` the value was 6.20; for `[O-][n+]1c(-c2ccc(Br)cc2)nc2cc(Cl)ccn21`, 6.57.

Turning to `[O-][n+]1c(-c2ccc(F)cc2)nc2ccccn21`, the pEC50 in data set [1] is below 5.00. Same read-out and setting: to `Brc1ccc(-c2nc3ccc(-c4ccccc4)cn3n2)cc1` belongs below 5.00; to `[O-][n+]1c(-c2ccc(Br)nc2)nc2ccccn21`, below 5.00; to `[O-][n+]1c(-c2ccc(Br)cc2)nc2cccc(Br)n21`, 6.69. On the same count and under the same terms, for `[O-][n+]1c(-c2ccc(Br)cc2)nc2cc(Br)ccn21` the value was 7.21; for `COc1ccc(-c2nc3ccccn3[n+]2[O-])cc1`, below 5.00. Same read-out and setting: to `[O-][n+]1c(-c2ccncc2)nc2ccccn21` belongs 5.33.

For the molecule `[O-][n+]1c(-c2ccc(Br)cc2)nc2ccc(F)cn21`, the pEC50 in data set [1] was 5.96.

Regarding `Clc1ccc2nc(-c3ccc(Br)cc3)nn2c1`, in data set [1], the pEC50 is 6.81. On the same count and under the same terms, to `Brc1cccc(-c2nc3ccc(Br)cn3n2)c1` belongs 8.02. Still for that read-out and setting: to `Fc1ccc2nc(-c3ccc(Br)cc3)nn2c1` belongs 6.18. Still for that read-out and setting: to `Clc1ccc(-c2nc3ccc(Br)cn3n2)cc1` belongs 9.08. On to `Brc1ccc2nc(-c3ccccc3)nn2c1`, for which the pEC50 in data set [1] is below 5.00.
